Experimental data: patent US20080045521A1, “PHENYLALANINE DERIVATIVES” (AstraZeneca AB, priority 2006, published 2008)

Legend:
[1] = molecular target: T1, α5β1 integrin mediated adhesion of K562 cells (Homo sapiens, UniProt P05556+P08648); test: In vitro cell adhesion assay (b): inhibition of adhesion of K562 cells to fibronectin fragment Fn9-10, crystal violet stain; assay type: cell-based; conditions: for IC50: K562 cells on Fn9-10, geometric mean of the measured IC50 values, n = number of tests; for activity in the cell adhesion assay (b): K562 cells, result in words
T1 construct: host or cells: K562 human erythroleukaemia cells
T1 sequence (P08648 42-894 limits assumed): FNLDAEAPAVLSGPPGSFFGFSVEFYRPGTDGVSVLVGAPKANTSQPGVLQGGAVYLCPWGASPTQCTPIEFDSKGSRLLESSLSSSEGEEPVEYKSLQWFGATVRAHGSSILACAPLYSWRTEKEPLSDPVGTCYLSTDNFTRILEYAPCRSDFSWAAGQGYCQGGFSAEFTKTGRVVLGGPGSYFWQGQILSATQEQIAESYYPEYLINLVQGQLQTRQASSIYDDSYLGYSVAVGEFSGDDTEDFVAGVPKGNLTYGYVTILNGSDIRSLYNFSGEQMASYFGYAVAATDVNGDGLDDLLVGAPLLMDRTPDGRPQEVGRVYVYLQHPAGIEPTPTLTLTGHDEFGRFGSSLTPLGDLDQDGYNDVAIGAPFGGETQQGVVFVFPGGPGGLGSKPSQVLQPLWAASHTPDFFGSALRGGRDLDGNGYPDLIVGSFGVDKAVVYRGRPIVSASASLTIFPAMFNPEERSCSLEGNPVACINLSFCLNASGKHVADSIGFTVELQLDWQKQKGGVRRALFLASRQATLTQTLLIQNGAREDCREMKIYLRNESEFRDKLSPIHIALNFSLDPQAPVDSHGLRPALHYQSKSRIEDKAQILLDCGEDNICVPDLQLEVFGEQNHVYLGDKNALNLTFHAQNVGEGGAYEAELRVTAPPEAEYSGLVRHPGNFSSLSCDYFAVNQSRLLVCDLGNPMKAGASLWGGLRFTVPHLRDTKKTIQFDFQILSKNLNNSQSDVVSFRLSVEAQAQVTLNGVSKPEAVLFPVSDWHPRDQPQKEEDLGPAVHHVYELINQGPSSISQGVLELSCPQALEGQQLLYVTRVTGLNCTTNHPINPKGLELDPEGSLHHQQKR
T1 sequence (P08648 895-1049 partner limits assumed): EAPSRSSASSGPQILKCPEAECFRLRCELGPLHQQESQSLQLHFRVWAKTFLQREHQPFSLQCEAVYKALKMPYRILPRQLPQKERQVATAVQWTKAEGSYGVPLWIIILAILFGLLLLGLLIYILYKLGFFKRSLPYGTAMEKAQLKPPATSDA
T1 sequence (P05556 21-798): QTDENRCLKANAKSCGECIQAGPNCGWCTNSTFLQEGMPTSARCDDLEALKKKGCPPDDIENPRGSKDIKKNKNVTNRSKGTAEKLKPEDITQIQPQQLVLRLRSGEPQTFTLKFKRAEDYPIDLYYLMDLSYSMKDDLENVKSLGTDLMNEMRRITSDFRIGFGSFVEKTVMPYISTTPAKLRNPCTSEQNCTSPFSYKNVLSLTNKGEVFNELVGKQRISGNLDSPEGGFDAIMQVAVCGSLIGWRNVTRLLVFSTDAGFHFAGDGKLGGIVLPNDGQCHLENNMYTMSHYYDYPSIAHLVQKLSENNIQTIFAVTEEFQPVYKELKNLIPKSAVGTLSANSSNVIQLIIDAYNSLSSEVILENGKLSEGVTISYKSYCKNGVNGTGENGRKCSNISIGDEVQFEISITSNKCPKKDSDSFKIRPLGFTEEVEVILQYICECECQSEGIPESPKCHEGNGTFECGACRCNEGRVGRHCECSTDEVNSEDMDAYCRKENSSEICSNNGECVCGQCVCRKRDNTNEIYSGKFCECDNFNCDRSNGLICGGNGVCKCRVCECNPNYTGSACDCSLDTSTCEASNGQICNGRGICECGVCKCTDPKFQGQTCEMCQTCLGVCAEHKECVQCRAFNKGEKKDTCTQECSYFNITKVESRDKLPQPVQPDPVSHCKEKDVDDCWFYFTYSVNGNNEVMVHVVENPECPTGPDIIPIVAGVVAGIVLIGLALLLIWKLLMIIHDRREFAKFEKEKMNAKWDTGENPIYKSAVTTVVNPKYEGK
From the text: (b) In Vitro Cell Adhesion Assay
The assay determined the ability of compounds to inhibit the α5β1 integrin mediated adhesion of K562 cells to the ligand, a fragment of human fibronectin. The human K562 erythroleukaemia cell line (LGC Promochem, Teddington, Middlesex, UK, Catalogue No. CCL-243) was routinely maintained in RPMI 1640 medium (Sigma-Aldrich Company Ltd, Gillingham, Dorset SP8 4XT, Catalogue No. R0883) containing 10% heat-inactivated foetal calf serum (PAA lab GmbH, Pasching, Austria Catalogue No. PAA-A15-043) and 1% glutamax-1 (Invitrogen Ltd. Paisley, UK Catalogue No. 35050-038) at 37° C. with 5% CO2 at densities between 1×10^5 and 1×10^6 cells/ml.
A DNA fragment encoding the domains 9-10 (amino-acids 1325-1509) of human fibronectin (Swiss-Prot Accession No. P02751) was isolated from cDNA libraries using standard molecular biology and PCR cloning techniques. The cDNA fragment was sub-cloned into a pT7#3.3 expression vector containing a GST-epitope tag (developed at AstraZeneca; Bagnall et al., Protein Expression and Purification, 2003, 27: 1-11), and the fragment termed Fn9-10. Following expression in E. coli, the expressed protein was purified using the GST-tag using standard purification techniques.
For adhesion assay, a 96-well flat bottomed plate (Greiner Bio one ltd., Gloucester GL10 3 SX Catalogue No. 655101) was coated overnight at 4° C. with 100 μl of 20 μg/ml Fn9-10 ligand in Dulbecco's PBS (Gibco#14190-94). The plate was then washed twice with 200 μl of PBS and blocked with 100 μl of 3% BSA (SigmaA7888) in PBS for 1 hour at 37° C. The plates were then washed again 3 times with 200 μl of PBS and left empty.
Test compounds were prepared as 10 mM stock solutions in DMSO (Sigma-Aldrich Company Ltd, Gillingham, Dorset SP8 4XT Catalogue No. 154938) and serially diluted with HBSS (Hanks Buffered Salt solution (Gibco Catalogue No. 14170-088)/2% DMSO to give a range of test concentrations at twice required final concentration. Aliquots (50 μl) of each compound dilution were placed into each well of the Fn9-10 coated plates. Each plate also contained control wells: maximum adhesion signal was created using wells containing 50 μl HBSS/2% DMSO, and minimum signal corresponding to no adhesion was created using wells containing 50 μl HBSS/2% DMSO /20 mM EDTA (Sigma Catalogue No. E7889). […]
After fixation, the ethanol was flicked off to waste and 100 μl of 0.1% Crystal violet stain was added to each well, and incubated at ambient temperature for 15 minutes. […] Finally, 100 μl of deionised water was added to each well and the absorbance was determined at 590 nm on a spectrophotometer. The minimum value was subtracted from all values, and the absorbance signal was plotted against compound concentration to generate IC50 data.

recombinant human α5β1 = recombinant human α5β1 (Homo sapiens, UniProt P05556+P08648); test: In vitro binding assay (a): inhibition of binding of α5β1 integrin to a fragment of human fibronectin (Fn9-10), Origen electrochemiluminescence; conditions: geometric mean of the measured IC50 values; n = number of tests
recombinant human α5β1, sequence (P08648 42-1049): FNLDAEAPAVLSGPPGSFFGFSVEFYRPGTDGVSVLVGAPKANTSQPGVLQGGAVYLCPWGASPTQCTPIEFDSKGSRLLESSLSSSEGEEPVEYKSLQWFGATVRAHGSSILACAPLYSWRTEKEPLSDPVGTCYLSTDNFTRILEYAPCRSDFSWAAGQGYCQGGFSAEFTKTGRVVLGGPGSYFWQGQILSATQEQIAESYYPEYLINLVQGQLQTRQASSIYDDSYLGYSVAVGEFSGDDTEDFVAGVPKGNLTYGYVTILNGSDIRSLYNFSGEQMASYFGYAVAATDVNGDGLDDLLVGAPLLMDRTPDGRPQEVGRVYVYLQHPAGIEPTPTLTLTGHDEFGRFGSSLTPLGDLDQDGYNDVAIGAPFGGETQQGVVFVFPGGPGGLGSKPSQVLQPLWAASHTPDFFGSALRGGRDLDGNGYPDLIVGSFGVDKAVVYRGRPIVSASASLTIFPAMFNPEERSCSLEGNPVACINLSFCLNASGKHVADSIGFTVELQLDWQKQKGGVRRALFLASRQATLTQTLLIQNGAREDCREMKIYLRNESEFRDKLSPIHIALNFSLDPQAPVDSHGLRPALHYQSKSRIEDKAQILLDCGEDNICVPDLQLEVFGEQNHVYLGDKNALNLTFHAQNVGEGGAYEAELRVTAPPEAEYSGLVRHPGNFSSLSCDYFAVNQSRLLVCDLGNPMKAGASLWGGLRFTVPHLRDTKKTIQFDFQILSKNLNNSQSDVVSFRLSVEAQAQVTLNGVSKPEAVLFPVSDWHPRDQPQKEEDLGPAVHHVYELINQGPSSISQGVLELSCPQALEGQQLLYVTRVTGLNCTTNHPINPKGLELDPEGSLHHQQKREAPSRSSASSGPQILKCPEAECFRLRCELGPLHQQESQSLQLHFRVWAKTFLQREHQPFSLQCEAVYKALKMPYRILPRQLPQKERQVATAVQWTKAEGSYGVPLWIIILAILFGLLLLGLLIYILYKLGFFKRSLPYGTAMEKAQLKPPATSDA
recombinant human α5β1, sequence (P05556 21-798): as the sequence (P05556 21-798) above
From the text: (a) In Vitro Binding Assay
The assay determined the ability of compounds to inhibit binding of α5β1 integrin to a cognate ligand, a fragment of human fibronectin. The assay used Origen technology (IGEN International) to measure the compound activity. Briefly, α5β1 integrin was coated onto epoxy-paramagnetic beads (Dynal Biotech UK, Bromborough, Wirral, CH62 3QL, UK, Catalogue No 140.11) and biotinylated-fibronectin ligand was coupled to strepatividin labeled Tag-NHS-Ester (BioVeris Corporation, Witney, Oxfordshire, OX28 4GE, UK, Catalogue No 110034). The ruthenium-labeled tag emits an electrochemiluminescence signal upon stimulation which is detected by the Origen reader. […]
20 μg of recombinant human α5β1 was coated onto 4×10(7) epoxy-paramagnetic beads according to manufacturers instructions at 4° C. for 24 hours. Integrin coating and corresponding activity was subsequently measured for each batch but typically, 25 ng of coated protein was used per assay well. […]
For the assay, 25 ng (20 ul) of a5b 1-bead suspension and 40 μl of the Fn9-10/Tag pre-incubated solution were added to each well containing 20 μl of compound or control solution. Assay plates were then incubated at room temperature for a minimum of 6 hours before being analysed on an Origen plate reader. […]

IC50 [1]	IC50 (recombinant human α5β1)	Compound	activity in the cell adhesion assay (b) [1]
2 nM	0.4 nM	O=C(N[C@@H](Cc1ccc(OCCc2ccc3c(n2)NCCC3)cc1)C(=O)O)c1c(Cl)cccc1Cl [Example 3, N-(2,6-dichlorobenzoyl)-O-[2-(5,6,7,8-tetrahydro-1,8-naphthyridin-2-yl)ethyl]-L-tyrosine]	–
31 nM	2 nM	CNc1cccc(CCCc2ccc(C[C@H](NC(=O)c3c(Cl)cccc3Cl)C(=O)O)s2)n1 [Example 29, N-(2,6-dichlorobenzoyl)-3-(5-{3-[6-(methylamino)pyridin-2-yl]propyl}-2-thienyl)-L-alanine]	–
–	–	O=C(N[C@@H](Cc1cccc(OCCNc2ccccn2)c1)C(=O)O)c1c(Cl)cccc1Cl [N-(2,6-dichlorobenzoyl)-3-[2-(pyridin-2-ylamino)ethoxy]-L-phenylalanine]	low activity
–	–	O=C(N[C@@H](Cc1cccc(OCCCCNc2ccccn2)c1)C(=O)O)c1c(Cl)cccc1Cl [N-(2,6-dichlorobenzoyl)-3-[4-(pyridin-2-ylamino)butoxy]-L-phenylalanine]	low activity
